As a reminder, the EC50 is the concentration at which the effect is half-maximal.

The target in this experiment is T1, human RORgT (Homo sapiens, UniProt P51449).
T1 construct: expressed in transfected cells
T1 sequence (P51449 267-516): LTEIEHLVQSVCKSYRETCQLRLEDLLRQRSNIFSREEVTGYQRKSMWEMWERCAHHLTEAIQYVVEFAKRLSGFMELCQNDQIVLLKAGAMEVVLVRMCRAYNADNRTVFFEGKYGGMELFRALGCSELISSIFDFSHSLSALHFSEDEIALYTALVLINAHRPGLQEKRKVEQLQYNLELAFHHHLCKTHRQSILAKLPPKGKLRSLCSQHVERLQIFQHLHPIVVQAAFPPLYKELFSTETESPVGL
In words: RORgT Gal4 Luciferase Reporter Gene Assay. It counts as cell-based. The note with it: engineered Jurkat cells overexpressing RORgT (LBD or full length) fused with Gal4 Luc reporter; 18 hours at 37° C.; luminescence. Summed up: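 Jurkat cells expressing Gal4 Luc with either RORgT LBD (aa267-516) or full-length human RORgT, 10,000 cells/well, treated with compound (40 µM to 0.67 nM final, 3-fold dilutions) for 18 h at 37° C. Steady-Glo luminescence read; inhibition of constitutive activity as % signal-window reduction relative to a control compound.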
For orientation: A reporter such as luciferase makes a cellular process visible.

Take `NS(=O)(=O)CC(=O)N1CC[C@@]2(S(=O)(=O)c3ccc(F)cc3)c3ccc(OCc4cc(Cl)ccc4Cl)cc3CC[C@@H]12` [Example 209, 2-[(3aR,9bR)-7-[(2,5-dichlorophenyl)methoxy]-9b-(4-fluorobenzenesulfonyl)-1H,2H,3H,3aH,4H,5H,9bH-benzo[e]indol-3-yl]-2-oxoethane-1-sulfonamide]: the EC50 stood at 124 nM.

Molecule `NC(=O)N1CCC(C(=O)N2CC[C@@]3(S(=O)(=O)c4ccc(F)cc4)c4ccc(OCc5cc(F)c(F)cc5Cl)cc4CC[C@@H]23)CC1` [Example 210, 4-[(3aR,9bR)-7-[(2-chloro-4,5-difluorophenyl)methoxy]-9b-(4-fluorobenzenesulfonyl)-1H,2H,3H,3aH,4H,5H,9bH-benzo[e]indole-3-carbonyl] piperidine-1-carboxamide] yielded an EC50 of 9.9 nM.

In turn, `NS(=O)(=O)CC(=O)N1CC[C@@]2(S(=O)(=O)c3ccc(F)cc3)c3ccc(OCc4cc(F)c(F)cc4Cl)cc3CC[C@@H]12` [Example 211, 2-[(3aR,9bR)-7-[(2-chloro-4,5-difluorophenyl)methoxy]-9b-(4-fluorobenzenesulfonyl)-1H,2H,3H,3aH,4H,5H,9bH-benzo[e]indol-3-yl]-2-oxoethane-1-sulfonamide] had an EC50 of 110 nM. The result for `CN1CCC(C(=O)N2CC[C@@]3(S(=O)(=O)c4ccc(F)cc4)c4ccc(OCc5cc(F)c(F)cc5Cl)cc4CC[C@@H]23)CC1` [Example 212, 4-[(3aR,9bR)-7-[(2-chloro-4,5-difluorophenyl)methoxy]-9b-(4-fluorobenzenesulfonyl)-1H,2H,3H,3aH,4H,5H,9bH-benzo[e]indole-3-carbonyl]-1-methylpiperidine] reads 160 nM; that for `O=C(C1CCS(=O)(=O)C1)N1CC[C@@]2(S(=O)(=O)c3ccc(F)cc3)c3ccc(OCc4cc(F)c(F)cc4Cl)cc3CC[C@@H]12` (stereo partly drawn) [Example 213, 3-[(3aR,9bR)-7-[(2-chloro-4,5-difluorophenyl)methoxy]-9b-(4-fluorobenzenesulfonyl)-1H,2H,3H,3aH,4H,5H,9bH-benzo[e]indole-3-carbonyl]-1λ^6-thiolane-1,1-dione], 4.9 nM. The molecule `CC(=O)N1CCC(C(=O)N2CC[C@@]3(S(=O)(=O)c4ccc(F)cc4)c4ccc(OCc5c(F)cc(F)cc5Cl)cc4CC[C@@H]23)CC1` [Example 214, 1-{4-[(3aR,9bR)-7-[(2-chloro-4,6-difluorophenyl)methoxy]-9b-(4-fluorobenzenesulfonyl)-1H,2H,3H,3aH,4H,5H,9bH-benzo[e]indole-3-carbonyl]piperidin-1-yl}ethan-1-one] had an EC50 of 5.3 nM. This EC50 and that of the molecule before are within 1.5-fold of each other. The result for `CN1CCC(C(=O)N2CC[C@@]3(S(=O)(=O)c4ccc(F)cc4)c4ccc(OCc5c(F)cc(F)cc5Cl)cc4CC[C@@H]23)CC1` [Example 215, 4-[(3aR,9bR)-7-[(2-chloro-4,6-difluorophenyl)methoxy]-9b-(4-fluorobenzenesulfonyl)-1H,2H,3H,3aH,4H,5H,9bH-benzo[e]indole-3-carbonyl]-1-methylpiperidine] reads 157 nM; that for `CS(=O)(=O)CC(=O)N1CC[C@@]2(S(=O)(=O)c3ccc(F)cc3)c3ccc(OCc4cc(F)c(F)cc4Cl)cc3CC[C@@H]12` [Example 216, 1-[(3aR,9bR)-7-[(2-chloro-4,5-difluorophenyl)methoxy]-9b-(4-fluorobenzenesulfonyl)-1H,2H,3H,3aH,4H,5H,9bH-benzo[e]indol-3-yl]-2-methanesulfonylethan-1-one], 266 nM.

Consider `CS(=O)(=O)CC(=O)N1CC[C@@]2(S(=O)(=O)c3ccc(F)cc3)c3ccc(OCc4c(F)cc(F)cc4Cl)cc3CC[C@@H]12` [Example 217, 1-[(3aR,9bR)-7-[(2-chloro-4,6-difluorophenyl)methoxy]-9b-(4-fluorobenzenesulfonyl)-1H,2H,3H,3aH,4H,5H,9bH-benzo[e]indol-3-yl]-2-methanesulfonylethan-1-one], for which the EC50 is 168 nM. The result for `O=C(C1CCS(=O)(=O)C1)N1CC[C@@]2(S(=O)(=O)c3ccc(F)cc3)c3ccc(OCc4c(F)cc(F)cc4Cl)cc3CC[C@@H]12` (stereo partly drawn) [Example 218, 3-[(3aR,9bR)-7-[(2-chloro-4,6-difluorophenyl)methoxy]-9b-(4-fluorobenzenesulfonyl)-1H,2H,3H,3aH,4H,5H,9bH-benzo[e]indole-3-carbonyl]-1λ^6-thiolane-1,1-dione] reads 12 nM; that for `CC(=O)N1CCC(C(=O)N2CC[C@@]3(S(=O)(=O)c4ccc(F)cc4)c4ccc(OCc5cc(F)c(F)cc5Cl)cc4CC[C@@H]23)CC1` [Example 219, 1-{4-[(3aR,9bR)-7-[(2-chloro-4,5-difluorophenyl)methoxy]-9b-(4-fluorobenzenesulfonyl)-1H,2H,3H,3aH,4H,5H,9bH-benzo[e]indole-3-carbonyl]piperidin-1-yl}ethan-1-one], 53 nM.

Regarding `NC(=O)N1CCC(C(=O)N2CC[C@@]3(S(=O)(=O)c4ccc(F)cc4)c4ccc(OCc5c(F)cc(F)cc5Cl)cc4CC[C@@H]23)CC1` [Example 220, 4-[(3aR,9bR)-7-[(2-chloro-4,6-difluorophenyl)methoxy]-9b-(4-fluorobenzenesulfonyl)-1H,2H,3H,3aH,4H,5H,9bH-benzo[e]indole-3-carbonyl]piperidine-1-carboxamide], a half-maximal response (EC50) required 13 nM. The result for `O=C(CN1CCS(=O)(=O)CC1)N1CC[C@@]2(S(=O)(=O)c3ccc(F)cc3)c3ccc(OCc4cc(F)c(F)cc4Cl)cc3CC[C@@H]12` [Example 221, 4-{2-[(3aR,9bR)-7-[(2-chloro-4,5-difluorophenyl)methoxy]-9b-(4-fluorobenzenesulfonyl)-1H,2H,3H,3aH,4H,5H,9bH-benzo[e]indol-3-yl]-2-oxoethyl}-1λ^6-thiomorpholine-1,1-dione] reads 34 nM. The figure for `[2H]C([2H])(Oc1ccc2c(c1)CC[C@H]1N(C(=O)[C@H]3CC[C@H](C(=O)O)CC3)CC[C@@]21S(=O)(=O)c1ccc(F)cc1)c1c(F)cccc1Cl` [Example 222] is 3.9 nM; for “(1R,4r)-4-((3aR,9bR)-7-((2-chloro-6-fluorobenzyl)oxy)-9b-((4-fluorophenyl)sulfonyl)-2,3,3a,4,5,9b-hexahydro-1H-benzo[e]indole-3-carbonyl)-1-methylcyclohexanecarboxylic acid [Example 8]” it is 12 nM.

The values are drawn from patent US20230295087A1, “AGONISTS OF ROR GAMMAt” (BRISTOL-MYERS SQUIBB COMPANY, priority 2019, published 2023).
